The record followed here is patent US9765087B2, “Benzimidazole derivatives” (ENANTA PHARMACEUTICALS, INC., priority 2009, dated 2017).

Read-outs that look alike come from different tables or passages of the source.

One assay concerns HCV 1a genotype replicon. Put plainly: HCV replicon assay (qRT-PCR or luciferase), genotype 1a. It counts as cell-based. Conditions: Hepatitis C virus. A digest of the protocol: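 Bartenschlager HCV replicon Huh cells; EC50 from HCV RNA by TaqMan qRT-PCR normalised to GAPDH, cytotoxicity by MTS. Combination studies in Huh-luc/neo-ET cells seeded at 7,000/well, compounds in 6-point two-fold dilutions, 0.2% DMSO final, 72 h at 37 °C, luciferase read-out.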

For another assay, the system named is HCV 1b genotype replicon. Put plainly: HCV replicon assay (qRT-PCR or luciferase), genotype 1b. The settings on record: Hepatitis C virus. The assay is classed as cell-based. A digest of the protocol:
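Genotype 1b subgenomic replicon Huh-luc/neo-ET cells (7,000/well) treated with compound for 72 h at 37 °C, 0.2% DMSO final; replication read by firefly luciferase. EC50 alternatively from qRT-PCR of HCV RNA normalized to GAPDH; cytotoxicity by MTS.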

The mark [1] stands for this setting: Table 12, numeric values, read-out: 1a EC50.
Where [2] appears, read: Table 12, range class, read-out: 1b EC50 Range.
The mark [3] stands for this setting: Table 12, range class, read-out: 1a EC50 Range.
Setting [4] is: Table 12, numeric values, read-out: 1b EC50.

By EC50 is commonly meant the midpoint of the concentration-response curve. As to `COC(=O)N[C@@H](CC#N)C(=O)N1CCC[C@H]1c1nc(-c2ccc(C#Cc3ccc4[nH]c([C@@H]5CC6(CC6)CN5C(=O)[C@@H](NC(=O)OC)C(C)C)nc4c3)cc2)c[nH]1` [Example 621], the EC50 in the assay with HCV 1a genotype replicon (setting [1]) was 0.207 nM; in the assay with HCV 1b genotype replicon (setting [2]), less than 1 nM.

For `COC(=O)N[C@H](C(=O)N1C[C@]2(CCCO2)C[C@H]1c1ncc(-c2ccc(C#Cc3ccc4nc([C@@H]5C[C@@]6(CCCO6)CN5C(=O)[C@@H](NC(=O)OC)C(C)C)[nH]c4c3)cc2)[nH]1)C(C)C` [Example 625], the EC50 with HCV 1a genotype replicon (setting [3]) and with HCV 1b genotype replicon (setting [2]) was less than 1 nM in each case.

In the case of `COC(=O)N[C@H](C(=O)N1CC(F)(F)C[C@H]1c1nc(-c2ccc(C#Cc3ccc4[nH]c([C@@H]5C[C@@]6(CCCO6)CN5C(=O)[C@@H](NC(=O)OC)C(C)C)nc4c3)cc2)c[nH]1)C(C)C` [Example 627], the EC50 was less than 1 nM in the assay with HCV 1a genotype replicon (setting [3]) and 0.01 nM in the assay on HCV 1b genotype replicon (setting [4]).

Turning to `COC(=O)N[C@H](C(=O)N1C[C@H](F)C[C@H]1c1nc(-c2ccc(C#Cc3ccc4[nH]c([C@@H]5C[C@@]6(CCCO6)CN5C(=O)[C@@H](NC(=O)OC)C(C)C)nc4c3)cc2)c[nH]1)C(C)C` [Example 629], the EC50 in the assay on HCV 1a genotype replicon (setting [1]) is 0.18 nM; with HCV 1b genotype replicon (setting [4]), 0.017 nM.

As to `COC(=O)N[C@H](C(=O)N1CCC[C@H]1c1nc(-c2ccc(C#Cc3ccc4[nH]c([C@@H]5C[C@@]6(CCOC6)CN5C(=O)[C@@H](NC(=O)OC)C(C)C)nc4c3)cc2)c[nH]1)C(C)C` [Example 630], the values for the half-maximal effective concentration (EC50) with HCV 1a genotype replicon (setting [3]) and with HCV 1b genotype replicon (setting [4]) were less than 1 nM and 0.011 nM, respectively.

Consider `COC(=O)N[C@H](C(=O)N1CC2(CC2)C[C@H]1c1nc(-c2ccc(C#Cc3ccc4[nH]c([C@@H]5C[C@@]6(CCOC6)CN5C(=O)[C@@H](NC(=O)OC)C(C)C)nc4c3)cc2)c[nH]1)C(C)C` [Example 631], for which the figures for the EC50 in the assay on HCV 1a genotype replicon (setting [3]) and in the assay with HCV 1b genotype replicon (setting [4]) were less than 1 nM and 0.008 nM, respectively.

With `COC(=O)N[C@H](C(=O)N1CC2(CC2)C[C@H]1c1ncc(-c2ccc(C#Cc3ccc4nc([C@@H]5C[C@@]6(CCCCO6)CN5C(=O)[C@@H](NC(=O)OC)C(C)C)[nH]c4c3)cc2)[nH]1)C(C)C` [Example 633], the results for the concentration giving a half-maximal response (EC50) in the assay on HCV 1a genotype replicon (setting [1]) and with HCV 1b genotype replicon (setting [2]) were 0.035 nM and less than 1 nM, respectively.

On to `COC(=O)N[C@H](C(=O)N1CCC[C@H]1c1ncc(-c2ccc(C#Cc3ccc4nc([C@@H]5C[C@@]6(CCC(=O)O6)CN5C(=O)[C@@H](NC(=O)OC)C(C)C)[nH]c4c3)cc2)[nH]1)C(C)C` [Example 635], for which the EC50 in the assay with HCV 1a genotype replicon (setting [3]) and with HCV 1b genotype replicon (setting [2]) was less than 1 nM in each case.

`COC(=O)N[C@H](C(=O)N1CC2(CC2)C[C@H]1c1nc2ccc(C#Cc3ccc(-c4cnc([C@@H]5C[C@H]6C[C@H]6N5C(=O)[C@@H](NC(=O)OC)C(C)C)[nH]4)cc3)cc2[nH]1)C(C)C` [Example 637]: the EC50 in the assay on HCV 1a genotype replicon (setting [3]) was less than 1 nM; in the assay on HCV 1b genotype replicon (setting [4]), 0.004 nM.

`COC(=O)N[C@H](C(=O)N1CC2(CC2)C[C@H]1c1ncc(-c2ccc(C#Cc3ccc4nc([C@@H]5C[C@@]6(CCCOC6)CN5C(=O)[C@@H](NC(=O)OC)C(C)C)[nH]c4c3)cc2)[nH]1)C(C)C` [Example 638]: the EC50 in the assay on HCV 1a genotype replicon (setting [3]) is less than 1 nM; in the assay on HCV 1b genotype replicon (setting [4]) it was 0.007 nM.

Turning to `COC(=O)N[C@H](C(=O)N1CC2(CC2)C[C@H]1c1ncc(-c2ccc(C#Cc3ccc4nc([C@@H]5C[C@]6(CCCOC6)CN5C(=O)[C@@H](NC(=O)OC)C(C)C)[nH]c4c3)cc2)[nH]1)C(C)C` [Example 639], the EC50 with HCV 1a genotype replicon (setting [3]) was less than 1 nM; in the assay with HCV 1b genotype replicon (setting [4]) it was 0.008 nM.

Consider `COC(=O)N[C@H](C(=O)N1CC2(CC2)C[C@H]1c1nc(-c2ccc(-c3ccc4[nH]c([C@@H]5CC6(CC6)CN5C(=O)[C@@H](NC(=O)OC)C(C)C)nc4c3)cc2)c[nH]1)C(C)C` [Example 640], for which the EC50 is 1 to 10 nM in the assay with HCV 1a genotype replicon (setting [3]) and 0.03 nM with HCV 1b genotype replicon (setting [4]).

For `COC(=O)N[C@H](C(=O)N1CCC[C@H]1c1ncc(-c2ccc(C#Cc3ccc4nc([C@@H]5C[C@H](C6CC6)CN5C(=O)[C@@H](NC(=O)OC)C(C)C)[nH]c4c3)cc2)[nH]1)C(C)C` [Example 641], the EC50 was less than 1 nM with HCV 1a genotype replicon (setting [3]) and 0.007 nM with HCV 1b genotype replicon (setting [4]).

`COC(=O)N[C@H](C(=O)N1CCC[C@H]1c1ncc(-c2ccc3nc(-c4ccc5nc([C@@H]6CC7(CC7)CN6C(=O)[C@@H](NC(=O)OC)C(C)C)[nH]c5c4)cnc3c2)[nH]1)C(C)C` [Example 643]: the EC50 with HCV 1a genotype replicon (setting [3]) is less than 1 nM; in the assay on HCV 1b genotype replicon (setting [4]), 0.054 nM.

On to `COC(=O)N[C@H](C(=O)N1CCC[C@H]1c1nc(-c2ccc3nc(-c4ccc5[nH]c([C@@H]6CC7(CC7)CN6C(=O)[C@@H](NC(=O)OC)C(C)C)nc5c4)ncc3c2)c[nH]1)C(C)C` [Example 644], for which the EC50 was less than 1 nM in the assay on HCV 1a genotype replicon (setting [3]) and 0.045 nM with HCV 1b genotype replicon (setting [4]).

`COC(=O)N[C@@H](C(=O)N1CC2(CC2)C[C@H]1c1ncc(-c2ccc(C#Cc3ccc4nc([C@@H]5CC6(CC6)CN5C(=O)[C@H](NC(=O)OC)c5ccccc5)[nH]c4c3)cc2)[nH]1)c1ccccc1` [Example 645]: the EC50 in the assay on HCV 1a genotype replicon (setting [3]) was less than 1 nM; with HCV 1b genotype replicon (setting [4]), 0.005 nM.

Take `COC(=O)N[C@H](C(=O)N1CCC[C@H]1c1ncc(-c2ccc(C#Cc3ccc4nc([C@@H]5CC6(CC6)CN5C(=O)[C@H](NC(=O)OC)c5ccccc5)[nH]c4c3)cc2)[nH]1)C(C)C` [Example 646]: the EC50 in the assay with HCV 1a genotype replicon (read-out: 1a EC50 Range, Table 12, range class) was less than 1 nM; in the assay with HCV 1b genotype replicon (setting [4]) it was 0.005 nM.

As for `COC(=O)N[C@H](C(=O)N1C[C@@]2(C[C@H]1c1nc(-c3ccc(C#Cc4ccc5[nH]c([C@@H]6CC7(CC7)CN6C(=O)[C@@H](NC(=O)OC)C(C)C)nc5c4)cc3)c[nH]1)CC2(F)F)C(C)C` [Example 687], the EC50 with HCV 1a genotype replicon (setting [3]) is less than 1 nM; in the assay on HCV 1b genotype replicon (setting [4]), 0.01 nM.

With `COC(=O)N[C@H](C(=O)N1CC2(CC2)C[C@H]1c1ncc(-c2ccc(C#Cc3ccc4nc([C@@H]5C[C@H](C6CC6)CN5C(=O)[C@@H](NC(=O)OC)C(C)C)[nH]c4c3)cc2)[nH]1)C(C)C` [Example 691], the EC50 in the assay on HCV 1a genotype replicon (setting [3]) and in the assay on HCV 1b genotype replicon (setting [2]) was less than 1 nM in each case.

In the case of `COC(=O)N[C@H](C(=O)N1CCC[C@H]1c1nc(-c2ccc3cc(-c4ccc5[nH]c([C@@H]6CC7(CC7)CN6C(=O)[C@@H](NC(=O)OC)C(C)C)nc5c4)ccc3c2)c[nH]1)C(C)C` [Example 692], the EC50 in the assay on HCV 1a genotype replicon (setting [3]) is less than 1 nM; with HCV 1b genotype replicon (setting [4]) it was 0.011 nM.

Take `COC(=O)NCCCC[C@H](NC(=O)OC)C(=O)N1CCC[C@H]1c1nc(-c2ccc(C#Cc3ccc4[nH]c([C@@H]5CC6(CC6)CN5C(=O)[C@@H](NC(=O)OC)C(C)C)nc4c3)cc2)c[nH]1` [Example 693]: the EC50 in the assay with HCV 1a genotype replicon (setting [3]) and with HCV 1b genotype replicon (setting [2]) was less than 1 nM throughout.
